Values joined by “and” are separate entries in the source; they are usually repeats but may differ in a detail not shown here. Identical values can stand only once. Inconclusive results and toxic doses are left out. Cut-off read from the data, not from the text of the source: active = T/C of 150% or more; inactive = T/C below 125%.
System: L1210 leukemia ip in BDF1 mice, survival T/C
Assay: NCI In Vivo Anticancer Drug Screen. Data for tumor model L1210 Leukemia (intraperitoneal) in B6D2F1 (BDF1) mice
Settings: endpoint: mean survival time, higher = longer survival
Method in brief: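 Survival endpoint. Drug-treated group vs vehicle group, expressed as T divided by C. Tumor passaged by transplantation.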

[1] = dose: 100.0 mg/kg/injection, schedule: Q01DX009 (ip), vehicle: saline with Tween-80
[2] = dose: 100.0 mg/kg/injection, schedule: Q04DX003 (ip), vehicle: saline with Tween-80
[3] = dose: 200.0 mg/kg/injection, schedule: Q01DX009 (ip), vehicle: saline with Tween-80
[4] = dose: 200.0 mg/kg/injection, schedule: Q04DX003 (ip), vehicle: saline with Tween-80
[5] = dose: 400.0 mg/kg/injection, schedule: Q01DX009 (ip), vehicle: saline with Tween-80
[6] = dose: 400.0 mg/kg/injection, schedule: Q04DX003 (ip), vehicle: saline with Tween-80
[7] = dose: 100.0 mg/kg/injection, schedule: Q01DX001 (ip), vehicle: saline
[8] = dose: 150.0 mg/kg/injection, schedule: Q01DX001 (ip), vehicle: saline
[9] = dose: 200.0 mg/kg/injection, schedule: Q01DX001 (ip), vehicle: saline
[10] = dose: 400.0 mg/kg/injection, schedule: Q01DX001 (ip), vehicle: saline
[11] = dose: 100.0 mg/kg/injection, schedule: Q01DX001 (ip), vehicle: carboxymethylcellulose (CMC)
[12] = dose: 200.0 mg/kg/injection, schedule: Q01DX001 (ip), vehicle: carboxymethylcellulose (CMC)
[13] = dose: 100.0 mg/kg/injection, schedule: Q01DX009 (ip), vehicle: Klucel (hydroxypropylcellulose) (HPC)
[14] = dose: 200.0 mg/kg/injection, schedule: Q01DX009 (ip), vehicle: Klucel (hydroxypropylcellulose) (HPC)
[15] = dose: 100.0 mg/kg/injection, schedule: Q04DX002 (ip), vehicle: Klucel (hydroxypropylcellulose) (HPC)
[16] = dose: 200.0 mg/kg/injection, schedule: Q04DX002 (ip), vehicle: Klucel (hydroxypropylcellulose) (HPC)
[17] = dose: 400.0 mg/kg/injection, schedule: Q01DX009 (ip), vehicle: Klucel (hydroxypropylcellulose) (HPC)
[18] = dose: 400.0 mg/kg/injection, schedule: Q04DX002 (ip), vehicle: Klucel (hydroxypropylcellulose) (HPC)
[19] = dose: 100.0 mg/kg/injection, schedule: Q01DX009 (ip), vehicle: saline
[20] = dose: 100.0 mg/kg/injection, schedule: Q04DX003 (ip), vehicle: saline
[21] = dose: 200.0 mg/kg/injection, schedule: Q01DX009 (ip), vehicle: saline
[22] = dose: 200.0 mg/kg/injection, schedule: Q04DX003 (ip), vehicle: saline
[23] = dose: 400.0 mg/kg/injection, schedule: Q01DX009 (ip), vehicle: saline
[24] = dose: 400.0 mg/kg/injection, schedule: Q04DX003 (ip), vehicle: saline
[25] = dose: 400.0 mg/kg/injection, schedule: Q01DX001 (ip), vehicle: carboxymethylcellulose (CMC)
[26] = dose: 25.0 mg/kg/injection, schedule: Q01DX009 (ip), vehicle: saline
[27] = dose: 50.0 mg/kg/injection, schedule: Q01DX009 (ip), vehicle: saline
[28] = dose: 100.0 mg/kg/injection, schedule: Q04DX002 (ip), vehicle: saline with Tween-80
[29] = dose: 200.0 mg/kg/injection, schedule: Q04DX002 (ip), vehicle: saline with Tween-80

Measured: T/C

CN(C)C(=O)c1cccc(NC(=O)Oc2ccccc2)c1
inactive: [1] 109 % of control | [2] 102 % of control | [3] 101 % of control | [4] 100 % of control | [5] 101 % of control | [6] 102 % of control

COC(=O)C1C(=O)OC(C)(C)C1c1ccccc1 (stereo not drawn)
inactive: dose: 44.0 mg/kg/injection, schedule: Q01DX001 (ip), vehicle: saline 95 % of control | dose: 66.0 mg/kg/injection, schedule: Q01DX001 (ip), vehicle: saline 101 % of control | [7] 100 % of control | [8] 103 % of control | [9] 91 % of control | [10] 91 % of control

O=C1OC(c2ccccc2)=N/C1=C\c1ccc2c(c1)OCO2
inactive: [11] 95 % of control | [12] 98 % of control

COc1ccc(OC)c(NC(=O)c2c(Br)c(Br)c(Br)c(Br)c2C(=O)O)c1
inactive: [13] 109 % of control | [14] 97 % of control

COc1cc(C(=O)NC2CC(C)CC(C)(C)C2)cc(OC)c1OC (stereo not drawn)
inactive: [13] 91 % of control | [15] 92 % of control | [14] 91 % of control | [16] 98 % of control | [17] 91 % of control | [18] 103 % of control

COC(=O)C(N)CSCSC (stereo not drawn)
inactive: [19] 107 % of control | [20] 103 % of control | [21] 101 % of control | [22] 105 % of control | [23] 101 % of control | [24] 97 % of control

CCCCCC[Si](C)(C)C
inactive: [11] 89 % of control | [12] 91 % of control | [25] 89 % of control

O=[N+]([O-])c1ccc2c(c1)Cc1c-2cc(I)c(O)c1I
inactive: [11] 96 % of control | [12] 98 % of control | [25] 98 % of control

O=S1(=O)CCCCO1
inactive: [26] 97 % of control | dose: 25.0 mg/kg/injection, schedule: Q04DX003 (ip), vehicle: saline 102 % of control | [27] 101 % of control | dose: 50.0 mg/kg/injection, schedule: Q04DX003 (ip), vehicle: saline 102 % of control | [19] 89 % of control | [20] 98 % of control

C#CCC1(OC(N)=O)CCCCC1
inactive: dose: 25.0 mg/kg/injection, schedule: Q01DX009 (ip), vehicle: Klucel (hydroxypropylcellulose) (HPC) 96 % of control | dose: 25.0 mg/kg/injection, schedule: Q04DX003 (ip), vehicle: Klucel (hydroxypropylcellulose) (HPC) 102 % of control | dose: 50.0 mg/kg/injection, schedule: Q01DX009 (ip), vehicle: Klucel (hydroxypropylcellulose) (HPC) 96 % of control | dose: 50.0 mg/kg/injection, schedule: Q04DX003 (ip), vehicle: Klucel (hydroxypropylcellulose) (HPC) 110 % of control | [13] 110 % of control | dose: 100.0 mg/kg/injection, schedule: Q04DX003 (ip), vehicle: Klucel (hydroxypropylcellulose) (HPC) 100 % of control | [14] 87 % of control | dose: 200.0 mg/kg/injection, schedule: Q04DX003 (ip), vehicle: Klucel (hydroxypropylcellulose) (HPC) 107 % of control | dose: 400.0 mg/kg/injection, schedule: Q04DX003 (ip), vehicle: Klucel (hydroxypropylcellulose) (HPC) 94 % of control

CCC[CH2][Sn]([S][Sn]([CH2]CCC)([c]1ccccc1)[c]1ccccc1)([c]1ccccc1)[c]1ccccc1
inactive: [28] 96 % of control | [29] 103 % of control

CCCC(C(=O)O)c1ccccc1C (stereo not drawn)
inactive: [1] 102 % of control | [2] 102 % of control | [3] 98 % of control | [4] 97 % of control | [5] 105 % of control | [6] 107 % of control

N#Cc1ccc(OCCCCOc2ccc([N+](=O)[O-])cc2Cl)cc1
inactive: [13] 91 % of control | [14] 95 % of control | [17] 101 % of control

COc1cc(C)nc(OC)n1
inactive: [7] 96 % of control | [9] 96 % of control | [10] 96 % of control

CCCC(=O)CCCCNC(=O)c1ccccc1
inactive: [28] 99 % of control | [29] 89 % of control

c1ccc(C(CCN2CCCC2)c2ccccn2)cc1 (stereo not drawn)
inactive: dose: 44.0 mg/kg/injection, schedule: Q01DX Z (ip), vehicle: saline 90 % of control | dose: 66.0 mg/kg/injection, schedule: Q01DX Z (ip), vehicle: saline 89 % of control

CCN=C(N)c1ccc(N=C(N)c2cccc(C(N)=Nc3ccc(C(N)=NCC)cc3)c2)cc1
inactive: dose: 3.75 mg/kg/injection, schedule: Q01DX Z (ip), vehicle: saline 104 % of control | dose: 15.0 mg/kg/injection, schedule: Q01DX Z (ip), vehicle: saline 120 % of control

CC(C)NC(=O)C1C2C=CC(CC2)C1C(=O)NC(C)C (stereo not drawn)
inactive: [2] 100 % of control | [4] 92 % of control | [6] 104 % of control

COc1cc(C(=O)NCC(=O)O)cc(OC)c1OC
inactive: [19] 86 % of control | [20] 107 % of control | [21] 86 % of control | [22] 98 % of control | [24] 95 % of control

CCOC(=O)C(CC)C1=CCCCC1 (stereo not drawn)
inactive: [1] 97 % of control | [2] 91 % of control | [3] 103 % of control | [4] 99 % of control | [6] 91 % of control

S=c1[nH]ncn1-c1ccccc1
inactive: [13] 92 % of control | [14] 93 % of control

CC1C(=O)CCCC1=O
inactive: [13] 101 % of control | [14] 101 % of control | [17] 95 % of control

COc1ccc2c(OC)cccc2c1
inactive: dose: 100.0 mg/kg/injection, schedule: Q01DX009 (ip), vehicle: other 87 % of control | dose: 200.0 mg/kg/injection, schedule: Q01DX009 (ip), vehicle: other 91 % of control | dose: 400.0 mg/kg/injection, schedule: Q01DX009 (ip), vehicle: other 91 % of control

CCCCN(Cc1ccccc1)C(=S)Nc1ccccc1
inactive: [13] 106 % of control | [14] 108 % of control | [17] 108 % of control

CCCCCCCCCCC(OO)C(=O)OC(C)(C)C (stereo not drawn)
inactive: [15] 95 % of control | [16] 91 % of control | [18] 91 % of control

C[S+](C)C12CC3CC(CC(C3)C1)C2
inactive: [26] 108 % of control | dose: 25.0 mg/kg/injection, schedule: Q04DX002 (ip), vehicle: saline 102 % of control | [27] 94 % of control | dose: 50.0 mg/kg/injection, schedule: Q04DX002 (ip), vehicle: saline 102 % of control | [19] 86 % of control | dose: 100.0 mg/kg/injection, schedule: Q04DX002 (ip), vehicle: saline 94 % of control and 96 % of control

CCOc1cc(C=Nc2cc(Br)c(O)c(Br)c2)ccc1N(CCCl)CCCl
inactive: dose: 13.3 mg/kg/injection, schedule: Q01DX009 (ip), vehicle: carboxymethylcellulose (CMC) 108 % of control | dose: 20.0 mg/kg/injection, schedule: Q01DX009 (ip), vehicle: carboxymethylcellulose (CMC) 100 % of control | dose: 30.0 mg/kg/injection, schedule: Q01DX009 (ip), vehicle: carboxymethylcellulose (CMC) 97 % of control | dose: 44.0 mg/kg/injection, schedule: Q01DX001 (ip), vehicle: carboxymethylcellulose (CMC) 123 % of control | [11] 123 % of control | dose: 150.0 mg/kg/injection, schedule: Q01DX001 (ip), vehicle: carboxymethylcellulose (CMC) 122 % of control

CN(CCc1cnc2nc(N)[nH]c(=O)c2n1)c1ccc(C(=O)O)cc1
inactive: dose: 75.0 mg/kg/injection, schedule: Q01DX001 (ip), vehicle: saline 90 % of control | [8] 95 % of control | dose: 300.0 mg/kg/injection, schedule: Q01DX001 (ip), vehicle: saline 94 % of control

c1cc2c(c3c1CC1c4cc5c(cc4CCN1C3)OCO5)OCO2 (stereo not drawn)
inactive: [7] 86 % of control

Nc1cccnn1
inactive: [19] 99 % of control | [20] 109 % of control | [21] 99 % of control | [22] 117 % of control | [23] 103 % of control | [24] 120 % of control
